Laboratory results: patent publication US9149044B2, “Pesticidal compositions” (Syngenta Participations AG, priority 2011, dated 2015)

Tested on: Heterodera glycines race 3
Experiment: Soybean pot test, cyst count as indicator of nematode control
Assay type: in vivo
Conditions: 28 days after planting
Description: A plug measuring 0.75 inch (approximately 1.9 cm) in diameter and 1 inch (approx. 2.5 cm) in depth was removed from each 3 inch diameter×8 inch deep (approx. 7.6×20 cm) plastic pot. Five thousand Heterodera glycines race 3 eggs were placed at the bottom of the plug hole. A soybean variety 3.6-B6 seed was placed on top of the inoculum. Six replicates were made for each treatment group. In addition to untreated control, the treatment groups were Pasteuria nishizawae, Bacillus firmus, and Pasteuria nishizawae+Bacillus firmus.
Bacillus firmus came applied as a seed treatment (available commercially, for example, from Bayer Crop Science as VOTIVO product, PONCHO/VOTIVO, having Bacillus firmus concentration at least 2×10^9 cfu/ml+clothianidin (0.13 mg/seed)). A point application containing Pasteuria nishizawae (approximately 5.0×10^9 spores) was applied directly to the seed in the pot. The plug was replaced in the hole to cover the seed. The soil was Vero Beach (Florida, USA) top soil, pH 5.9 (approximate composition sand 93%, silt 2%, clay 2%, organic matter 3%).
At 28 days after planting, plant height was measured and plants were removed from the pots. Soil was gently rinsed from the roots. The rinsed roots were placed in a 20 mesh over a 60 mesh sieve. The root system was blasted with water to remove cyst nematode females. The 20 mesh sieve was removed and the cysts were washed to the bottom of the 60 mesh sieve. The cysts were rinsed into a tube for counting under a stereoscope. Later the dry root weights were measured.

## Pasteuria nishizawae
5000 eggs per pot, average of six replicates
  Average Cyst Count: 366
5000 eggs per pot, cysts washed from roots, average of six replicates
  Cyst Count: 366
From cyst count versus untreated control
  % Control Observed: 2.40%
